Consider 3 compounds from publication doi:10.1101/2023.12.04.569845, “Identification of 4-(6-((2-methoxyphenyl)amino)pyrazin-2-yl)benzoic acids as CSNK2A inhibitors with antiviral activity and improved selectivity over PIM3” (bioRxiv, 2023).

Like-named read-outs stand apart in the source and are kept apart here.

Some targets named below: DAPK3 (Homo sapiens, UniProt O43293); FES (Homo sapiens, UniProt P07332); CAMK2D (Homo sapiens, UniProt Q13557); EPHA7 (Homo sapiens, UniProt Q15375); CLK1 (Homo sapiens, UniProt P49759); FGFR1 (Homo sapiens, UniProt P11362); MAPKAPK2 (Homo sapiens, UniProt P49137); EphA2 (Homo sapiens, UniProt P29317).
Common to all, as to assay: biochemical
Common to all, as to design: Thermal shift (DSF, SYPRO Orange) Tm shift of recombinant kinase domains at 10 uM compound

In the next experiment the target is T1, MAP2K7 (Homo sapiens, UniProt O14733).
T1 sequence (O14733 1-419): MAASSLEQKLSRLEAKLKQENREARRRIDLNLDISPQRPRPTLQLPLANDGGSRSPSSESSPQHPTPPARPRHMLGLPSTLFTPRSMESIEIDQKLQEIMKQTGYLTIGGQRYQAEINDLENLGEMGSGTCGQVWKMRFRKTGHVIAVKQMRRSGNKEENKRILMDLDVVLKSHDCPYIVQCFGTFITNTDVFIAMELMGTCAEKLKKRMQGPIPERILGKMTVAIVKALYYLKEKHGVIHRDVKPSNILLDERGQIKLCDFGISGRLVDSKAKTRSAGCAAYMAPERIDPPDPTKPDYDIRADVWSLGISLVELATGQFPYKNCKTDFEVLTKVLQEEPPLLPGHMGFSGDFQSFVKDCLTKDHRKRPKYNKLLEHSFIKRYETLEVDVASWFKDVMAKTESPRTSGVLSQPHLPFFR

In a further experiment the target is T2, VRK1 (Homo sapiens, UniProt Q99986).
T2 sequence (Q99986 1-396): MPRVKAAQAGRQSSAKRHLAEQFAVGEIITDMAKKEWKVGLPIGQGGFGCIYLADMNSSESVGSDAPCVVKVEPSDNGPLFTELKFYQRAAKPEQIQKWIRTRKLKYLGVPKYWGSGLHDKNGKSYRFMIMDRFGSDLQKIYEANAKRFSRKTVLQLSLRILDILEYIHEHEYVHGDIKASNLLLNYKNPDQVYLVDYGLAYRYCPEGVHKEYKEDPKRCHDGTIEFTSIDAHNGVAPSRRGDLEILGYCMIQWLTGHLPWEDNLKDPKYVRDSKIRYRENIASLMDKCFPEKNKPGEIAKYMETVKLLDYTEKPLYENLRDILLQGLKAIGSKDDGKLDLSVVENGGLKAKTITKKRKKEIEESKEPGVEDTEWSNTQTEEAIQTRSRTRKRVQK

Chain of DAPK3 (O43293 whole entry): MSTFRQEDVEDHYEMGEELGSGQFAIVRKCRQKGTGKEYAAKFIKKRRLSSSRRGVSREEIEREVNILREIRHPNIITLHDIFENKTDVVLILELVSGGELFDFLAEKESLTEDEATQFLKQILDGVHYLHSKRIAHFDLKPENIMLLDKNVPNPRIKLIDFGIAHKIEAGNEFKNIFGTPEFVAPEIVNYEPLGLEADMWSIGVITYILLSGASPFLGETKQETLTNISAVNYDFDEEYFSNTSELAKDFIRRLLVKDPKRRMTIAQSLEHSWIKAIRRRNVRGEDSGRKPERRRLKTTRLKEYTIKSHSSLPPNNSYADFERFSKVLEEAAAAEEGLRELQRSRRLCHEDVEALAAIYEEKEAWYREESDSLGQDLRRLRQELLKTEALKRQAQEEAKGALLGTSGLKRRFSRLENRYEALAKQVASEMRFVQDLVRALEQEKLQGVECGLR
Chain of EphA2 (P29317 whole entry): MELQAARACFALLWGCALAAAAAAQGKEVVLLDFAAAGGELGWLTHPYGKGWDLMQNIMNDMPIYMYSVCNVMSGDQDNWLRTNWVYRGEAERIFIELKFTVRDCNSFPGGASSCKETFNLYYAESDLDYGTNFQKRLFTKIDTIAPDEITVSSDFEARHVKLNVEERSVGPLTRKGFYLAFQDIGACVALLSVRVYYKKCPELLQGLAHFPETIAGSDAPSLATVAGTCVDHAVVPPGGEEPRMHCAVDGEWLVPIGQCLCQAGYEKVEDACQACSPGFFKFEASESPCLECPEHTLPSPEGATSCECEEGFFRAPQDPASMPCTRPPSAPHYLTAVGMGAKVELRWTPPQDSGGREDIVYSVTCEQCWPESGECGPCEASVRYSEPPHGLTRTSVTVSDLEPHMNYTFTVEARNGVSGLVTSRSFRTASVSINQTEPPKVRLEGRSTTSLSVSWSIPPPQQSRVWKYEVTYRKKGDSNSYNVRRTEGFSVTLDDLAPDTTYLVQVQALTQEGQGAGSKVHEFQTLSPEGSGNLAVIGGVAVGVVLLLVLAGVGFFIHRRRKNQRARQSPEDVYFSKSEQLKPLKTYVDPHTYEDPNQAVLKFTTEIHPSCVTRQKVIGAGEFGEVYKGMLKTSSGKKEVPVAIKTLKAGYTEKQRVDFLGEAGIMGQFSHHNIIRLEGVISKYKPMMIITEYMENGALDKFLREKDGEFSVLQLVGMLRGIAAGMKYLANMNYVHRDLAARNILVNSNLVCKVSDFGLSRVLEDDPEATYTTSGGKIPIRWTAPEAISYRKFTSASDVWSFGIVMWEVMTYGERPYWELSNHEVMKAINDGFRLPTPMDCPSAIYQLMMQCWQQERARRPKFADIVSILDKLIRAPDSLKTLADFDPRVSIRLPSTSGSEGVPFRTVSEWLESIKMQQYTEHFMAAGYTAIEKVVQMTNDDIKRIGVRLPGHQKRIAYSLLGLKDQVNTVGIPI
Chain of MAPKAPK2 (P49137 whole entry): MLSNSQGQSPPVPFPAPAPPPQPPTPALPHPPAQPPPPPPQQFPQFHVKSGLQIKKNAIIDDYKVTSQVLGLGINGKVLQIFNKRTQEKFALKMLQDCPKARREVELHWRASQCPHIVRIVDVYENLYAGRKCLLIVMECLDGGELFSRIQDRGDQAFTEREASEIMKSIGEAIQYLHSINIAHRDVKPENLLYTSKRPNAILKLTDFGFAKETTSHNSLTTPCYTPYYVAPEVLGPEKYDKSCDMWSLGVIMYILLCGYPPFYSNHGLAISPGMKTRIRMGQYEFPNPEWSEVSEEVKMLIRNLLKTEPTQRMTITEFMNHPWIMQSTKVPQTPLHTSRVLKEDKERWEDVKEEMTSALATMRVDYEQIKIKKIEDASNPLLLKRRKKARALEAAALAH
Chain of CAMK2D (Q13557 whole entry): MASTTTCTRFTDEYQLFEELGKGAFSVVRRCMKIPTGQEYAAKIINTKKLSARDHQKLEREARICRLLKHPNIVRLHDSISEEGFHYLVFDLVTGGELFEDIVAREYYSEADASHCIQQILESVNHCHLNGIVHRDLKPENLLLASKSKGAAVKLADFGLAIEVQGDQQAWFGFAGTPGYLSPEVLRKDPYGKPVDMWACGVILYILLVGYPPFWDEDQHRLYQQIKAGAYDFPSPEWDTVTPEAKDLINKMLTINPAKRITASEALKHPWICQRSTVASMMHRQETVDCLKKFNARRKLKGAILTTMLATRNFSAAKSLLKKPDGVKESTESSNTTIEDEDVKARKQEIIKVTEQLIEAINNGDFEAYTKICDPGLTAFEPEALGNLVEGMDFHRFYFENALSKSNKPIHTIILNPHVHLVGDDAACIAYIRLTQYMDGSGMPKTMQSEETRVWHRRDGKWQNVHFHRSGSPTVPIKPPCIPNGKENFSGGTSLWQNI
Chain of EPHA7 (Q15375 whole entry): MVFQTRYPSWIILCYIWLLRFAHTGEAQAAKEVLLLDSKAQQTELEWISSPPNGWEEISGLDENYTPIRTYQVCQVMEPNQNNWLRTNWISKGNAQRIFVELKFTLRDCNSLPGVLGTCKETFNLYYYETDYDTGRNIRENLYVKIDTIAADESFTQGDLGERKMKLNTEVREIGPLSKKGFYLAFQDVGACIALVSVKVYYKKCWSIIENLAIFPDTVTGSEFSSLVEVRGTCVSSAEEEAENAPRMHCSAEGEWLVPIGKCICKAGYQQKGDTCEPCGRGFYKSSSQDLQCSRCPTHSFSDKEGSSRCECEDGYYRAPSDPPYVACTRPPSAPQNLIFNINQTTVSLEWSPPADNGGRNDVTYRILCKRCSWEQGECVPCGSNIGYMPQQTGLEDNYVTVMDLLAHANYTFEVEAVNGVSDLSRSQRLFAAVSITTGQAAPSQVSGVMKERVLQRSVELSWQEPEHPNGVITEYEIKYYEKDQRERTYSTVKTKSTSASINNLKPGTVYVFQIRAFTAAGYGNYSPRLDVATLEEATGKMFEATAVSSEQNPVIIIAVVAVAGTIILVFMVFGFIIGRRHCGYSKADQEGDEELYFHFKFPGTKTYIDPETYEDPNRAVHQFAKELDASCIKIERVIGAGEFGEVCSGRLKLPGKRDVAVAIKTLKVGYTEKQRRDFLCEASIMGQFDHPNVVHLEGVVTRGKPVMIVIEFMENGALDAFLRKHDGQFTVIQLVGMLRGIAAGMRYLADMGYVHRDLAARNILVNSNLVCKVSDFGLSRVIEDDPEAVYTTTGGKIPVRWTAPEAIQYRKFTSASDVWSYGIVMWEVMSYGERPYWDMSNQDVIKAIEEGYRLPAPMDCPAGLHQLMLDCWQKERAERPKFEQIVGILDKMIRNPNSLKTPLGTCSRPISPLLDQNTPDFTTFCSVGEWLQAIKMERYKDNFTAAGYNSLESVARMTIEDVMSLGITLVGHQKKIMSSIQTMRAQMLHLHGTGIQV
Chain of FGFR1 (P11362 whole entry): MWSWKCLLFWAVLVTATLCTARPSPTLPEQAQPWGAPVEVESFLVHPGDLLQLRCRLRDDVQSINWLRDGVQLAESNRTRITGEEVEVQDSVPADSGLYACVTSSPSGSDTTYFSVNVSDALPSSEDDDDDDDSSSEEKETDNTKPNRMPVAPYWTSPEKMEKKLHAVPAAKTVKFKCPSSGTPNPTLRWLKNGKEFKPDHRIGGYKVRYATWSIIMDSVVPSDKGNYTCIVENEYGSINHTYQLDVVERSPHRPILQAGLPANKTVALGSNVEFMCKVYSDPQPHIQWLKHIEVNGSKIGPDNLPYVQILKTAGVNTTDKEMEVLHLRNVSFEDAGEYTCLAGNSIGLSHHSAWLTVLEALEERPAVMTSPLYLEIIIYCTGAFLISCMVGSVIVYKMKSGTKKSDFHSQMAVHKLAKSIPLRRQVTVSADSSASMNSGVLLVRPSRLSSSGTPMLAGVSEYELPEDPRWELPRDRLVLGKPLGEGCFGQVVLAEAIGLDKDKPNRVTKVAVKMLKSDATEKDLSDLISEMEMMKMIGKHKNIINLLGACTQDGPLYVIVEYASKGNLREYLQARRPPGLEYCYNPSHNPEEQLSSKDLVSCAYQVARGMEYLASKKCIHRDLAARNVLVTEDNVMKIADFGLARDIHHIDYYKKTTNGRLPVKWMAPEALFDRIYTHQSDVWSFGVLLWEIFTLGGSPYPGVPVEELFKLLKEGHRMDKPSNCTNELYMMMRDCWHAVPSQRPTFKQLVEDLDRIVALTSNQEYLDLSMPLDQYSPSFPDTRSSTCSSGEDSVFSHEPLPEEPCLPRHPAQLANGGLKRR
Chain of FES (P07332 whole entry): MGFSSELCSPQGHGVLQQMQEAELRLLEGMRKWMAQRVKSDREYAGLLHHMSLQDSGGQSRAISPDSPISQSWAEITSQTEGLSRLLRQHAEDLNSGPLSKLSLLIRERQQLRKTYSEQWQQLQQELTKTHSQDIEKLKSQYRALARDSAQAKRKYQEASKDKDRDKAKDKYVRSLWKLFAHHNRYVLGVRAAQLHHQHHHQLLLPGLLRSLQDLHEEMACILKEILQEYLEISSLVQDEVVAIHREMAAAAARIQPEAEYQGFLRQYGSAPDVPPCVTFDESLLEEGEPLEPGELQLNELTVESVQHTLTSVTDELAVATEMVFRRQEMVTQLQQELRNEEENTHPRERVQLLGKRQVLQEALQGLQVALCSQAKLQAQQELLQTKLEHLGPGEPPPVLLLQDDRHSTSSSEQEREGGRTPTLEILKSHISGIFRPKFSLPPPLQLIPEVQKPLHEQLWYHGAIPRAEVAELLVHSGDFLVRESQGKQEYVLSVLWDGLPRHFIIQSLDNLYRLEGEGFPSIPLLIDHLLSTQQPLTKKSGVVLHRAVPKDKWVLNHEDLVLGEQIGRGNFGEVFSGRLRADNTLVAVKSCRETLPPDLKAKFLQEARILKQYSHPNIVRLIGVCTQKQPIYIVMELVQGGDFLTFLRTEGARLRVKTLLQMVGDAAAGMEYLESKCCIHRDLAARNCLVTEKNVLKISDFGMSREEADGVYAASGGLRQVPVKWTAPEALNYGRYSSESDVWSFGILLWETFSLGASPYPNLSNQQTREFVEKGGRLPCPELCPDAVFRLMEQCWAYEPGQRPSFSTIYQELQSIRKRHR

As for `CC(C)Oc1ccc2ccn(-c3cncc(-c4ccc(C(=O)O)cc4)n3)c2c1` [6c], the ΔTm at 10 µM at MAP2K7 (read-out: 6c) was 0 °C; on VRK1 (read-out: 6c), 0 °C; on DAPK3 (read-out: 6c), 11 °C; on FES (read-out: 6c) it was -1 °C; at CAMK2D (read-out: 6c), 3 °C; on EPHA7 (read-out: 6c) it was 1 °C. In addition, the ΔTm at 10 µM on CLK1 (read-out: 6c) is 7 °C; on FGFR1 (read-out: 6c), 0 °C; at MAPKAPK2 (read-out: 6c) it was -1 °C; on EphA2 (read-out: 6c), 3 °C.

For the compound `COc1ccc(OC(C)C)cc1Nc1cncc(-c2ccc(C(=O)O)cc2)n1` [7c], the ΔTm at 10 µM on MAP2K7 (read-out: 7c) is -1 °C; on VRK1 (read-out: 7c) it was 0 °C; on DAPK3 (read-out: 7c), 14 °C; on FES (read-out: 7c), 0 °C; on CAMK2D (read-out: 7c) it was 0 °C; at EPHA7 (read-out: 7c), 0 °C. The ΔTm at 10 µM on CLK1 (read-out: 7c) was determined as 7 °C; on FGFR1 (read-out: 7c), 0 °C; on MAPKAPK2 (read-out: 7c) it was 0 °C; at EphA2 (read-out: 7c), 1 °C.

For the compound `CC(C)Nc1ccc2cnn(-c3cncc(-c4ccc(C(=O)O)cc4)n3)c2c1` [compound 2, 2], the ΔTm at 10 µM came to 0 °C on MAP2K7 (read-out: 2); 1 °C at VRK1 (read-out: 2); 16 °C at DAPK3 (read-out: 2); 2 °C at FES (read-out: 2); 3 °C at CAMK2D (read-out: 2); 2 °C at EPHA7 (read-out: 2). The ΔTm at 10 µM amounted to 7 °C on CLK1 (read-out: 2), 1 °C on FGFR1 (read-out: 2), 0 °C on MAPKAPK2 (read-out: 2) and 1 °C on EphA2 (read-out: 2).
